According to patent US20250261637A1, “DISINFECTANT COMPOSITIONS AND METHODS THEREOF” (HALOMINE INC., priority 2022, published 2025):
Blank lines part the entries; values can stand above or below the compound they belong to.

How the values were obtained:
[1] = system: S. aureus; experiment: MBC testing of chlorinated HASA; format: cell-based, Staphylococcus aureus; details: for MBC: Staphylococcus aureus
Protocol: (§1) NaDCC, NaOC, HOC, and HASA-Cl solutions were prepared at chlorine concentrations of 300, 250, 200, 150, 100, and 50 ppm and mixed with a S. aureus suspension containing […] as an organic load for 30 seconds. After 30 seconds, the mixtures were neutralized with Na2S2O3 to quench oxidative chlorine, added to tryptic soy broth (TSB), and incubated (e.g., for 48 hours at 37° C.). Following the incubation, samples were assessed for S. aureus growth inhibition to determine the minimum inhibitory concentration (MIC). […] To determine the minimum biocidal concentration (MBC), samples were plated on agar and viable colonies counted. […] The analysis was run in duplicate with a 8.34 log inoculum concentration of S. aureus in the first analysis and a 8.37 log inoculum concentration of S. aureus in the second analysis.
(§2) NaDCC, NaOCl, HOC, and HASA-Cl solutions were prepared at chlorine concentrations of 800, 700, 600, 500, 400, 300, 200, and 100 ppm and mixed with a suspension of S. aureus containing 10% FBS or 15% as an organic load and reacted for 1 minute or 5 minutes. After reacting, the mixtures were neutralized with Na2S2O3 to quench oxidative chlorine, added to tryptic soy broth (TSB), and incubated (e.g., for 48 hours at 37° C.). Following the incubation, samples were assessed for S. aureus growth inhibition to determine the MIC. […] To determine the MBC, samples were plated on agar and viable colonies counted. […] The analysis was run in duplicate with a 8.23 log inoculum concentration of S. aureus.
(§3) Three solutions of HASA-Cl (HASA-Cl_D, HASA-Cl_E, and HASA-Cl_F) were prepared by chlorinating HASA55 in aqueous HOCl at varying HASA55:chlorine stoichiometric molar ratios, isolating the chlorinated HASA55-Cl polymer, and dissolving the chlorinated polymer in water. The three HASA-Cl solutions and HASA-HOCl, NaDCC, NaOCl, and HOCl solutions were diluted to chlorine concentrations of 300, 250, 200, 150, 100, and 50 ppm, mixed with a suspension of S. aureus with 5% FBS organic load, and reacted for 30 seconds. After reacting, the mixtures were neutralized to remove oxidative chlorine, added to tryptic soy broth, and incubated (e.g. for 48 hours at 37° C.). Following the incubation, samples were assessed for S. aureus growth inhibition to determine the MIC. To determine the MBC, samples were plated on agar and viable colonies counted. […] The analysis was run in duplicate with a 8.34 log inoculum concentration of S. aureus in the first experiment and a 8.37 log inoculum concentration of S. aureus in the second experiment.

[2] = system: S. aureus; experiment: MIC testing of chlorinated HASA; format: cell-based, Staphylococcus aureus; details: for MIC: Staphylococcus aureus
Protocol: as §1, §2, §3

[3] = pH of chlorinated HA and HASA55 solutions over time; format: physicochemical; details: HOCl series, 10 weeks
Protocol: (§4) Various aqueous electrophilic halogen solutions were used to dissolve HASA55 powder. Undiluted disinfexol stock solution was used as HOCl source, Clorox® germicidal bleach diluted 1:48 volumetrically was used as a NaOCl source, and a stock solution of Purtab prepared by dissolving 1 tablet in a quart of water was used as a NaDCC source. Various samples of HASA55 solutions chlorinated with HOCl, NaOCl, and NaDCC were prepared by dissolving HASA55 in the electrophilic halogen source solutions at stoichiometric molar ratios of 2:1, 1:1, 1:2, 1:4, and 1:8 HASA55:electrophilic halogen source for HOCl and NaOCl, and at stoichiometric molar ratios of 4:1, 2:1, 1:1, 1:2, and 1:4 HASA55:NaDCC. Various samples of HA monomers chlorinated with HOCl, NaOCl, and NaDCC were prepared by dissolving HA monomer in the electrophilic halogen source solutions at stoichiometric molar ratios of 2:1, 1:1, 1:2, 1:3, and 1:6 HA:electrophilic halogen source for HOCl and NaOCl, and at stoichiometric molar ratios of 4:1, 2:1, 1:1, 1:1.5, and 1:3 for HA:NaDCC. The resulting solutions were sealed and stored in air-tight bottles to assess the amount of available chlorine and the pH of the solution over time. Available chlorine concentrations were calculated according to a spectrophotometric method using a DPD indicator as detailed above and pH was calculated using a pH meter.

[4] = Chlorine stability of chlorinated HA and HASA55 solutions over 10 weeks (available chlorine, DPD); format: physicochemical
Protocol: as §4

[5] = Residual chlorine content of dried chlorinated N-halamine coatings on SS304 coupons; format: physicochemical; details: for Estimated residual Cl (%): SS304 coupon
Protocol: HASA-Cl solutions were prepared according to procedures detailed in EXAMPLE 6 above. Stainless steel 304 (SS304) coupons with a dimension of 1″×1″ and thickness of 0.024″ were scrubbed with a sponge and 1% detergent (e.g., Liquinox®), rinsed with deionized water, and dried. To the dried SS304 coupons, a 1 mL sample of a HASA-Cl, HA-Cl, or electrophilic halogen solution was pipetted using a micropipette without rinsing or wiping the coupon after pipetting. The sample coupons coated with HASA-Cl HA-Cl, and electrophilic halogen sources, were stored at ambient temperature and humidity with indoor light exposure. […] HASA/HOCl solutions with high stoichiometric molar amounts of HASA (2:1 HASA:HOCl and 1:1 HASA:HOCl) formed coatings with a flaked dried polymer appearance, while the other solutions formed coatings with a stain-like appearance with a majority of the SS304 base substrate exposed.
To extract chlorine from the surface of a SS304 sample coupon, a sample coupon was added to a centrifuge tube containing 20 mL of deionized water, 200 mg of K1, and 10 drops of 4N acetic acid. The mixture containing the sample coupon was mixed by shaking (e.g. at 120 rpm for 10 minutes), and solution removed and added to a glass sample cell for analysis by spectrophotometry with a DPD indicator according to the procedure detailed above. The amount of chlorine was calculated against a chlorine standard curve. Chlorine density was calculated according to the following formula: […]
The bars are presented in the order Day 1, Day 2, Day 3, Day 7, and Day 28. […] At 28 days, the chlorine density of HASA/HOCl and HA/HOCl solutions decreased, to around half of the Day 1 chlorine density. […] Estimated residual chlorine percentages were calculated from the ratio of the amount of chlorine retrieved from the dried coating over the amount of chlorine deposited in the 1 mL solution. TABLE 19 summarizes the estimated residual chlorine percentages of HA/HOCl and HASA/HOCl solutions over the 28 days. Estimated residual chlorine percentages were stable for up to 1 week for HASA/HOCl solutions with stoichiometric molar ratios of HASA:HOCl higher than 1:2, aligning with the chlorine density data.

[6] = 5% FBS organic load, 30 seconds (Table 18)
[7] = Exp 1, 5 FBS organic load, 30 seconds, 8.34 log inoculum
[8] = Exp 2, 5 FBS organic load, 30 seconds, 8.37 log inoculum
[9] = Exp 1, 5 FBS organic load, 30 seconds, 8.34 log inoculum, ppm chlorine

MIC value [2, 6]: 150 ppm
MIC value ([2]; 10% FBS, 1 min): 300 ppm
MIC value ([2]; 10% FBS, 5 min): 100 ppm
MIC value ([2]; 15% FBS, 1 min): 300 ppm
MIC value ([2]; 15% FBS, 5 min): 200 ppm
MIC value [2, 9]: 150 ppm
MIC value [2, 8]: 100 ppm
pH over time (in words) [3]: stable pH
chlorine loss (in words) ([4]; HOCl series, 10 week period): lowest chlorine loss
available chlorine ([4]; HOCl series, Day 0): 707 mg/L
available chlorine ([4]; HOCl series, W 0): 727 mg/L
available chlorine ([4]; HOCl series, W 4): 687 mg/L
available chlorine ([4]; HOCl series, W 6): 637 mg/L
available chlorine ([4]; HOCl series, W 10): 607 mg/L
available chlorine ([4]; NaOCl series, Day 0): 1443
available chlorine ([4]; NaOCl series, W 1): 1447
available chlorine ([4]; NaOCl series, W 3): 1443
available chlorine ([4]; NaOCl series, W 6): 1520
available chlorine ([4]; NaOCl series, W 10): 1537
Estimated residual Cl (%) ([5]; 1 mL deposited, Day 1): 0.1%
Estimated residual Cl (%) ([5]; Day 2): 0.2%
Estimated residual Cl (%) ([5]; Day 3): 0.3%
Estimated residual Cl (%) ([5]; Day 7): 0.1%
Estimated residual Cl (%) ([5]; Day 28): 0.2%
residual chlorine density (in words) ([5]; SS304 coupons, Day 1): no residual chlorine density
Compound: OCl [HOCl, hypochlorous acid]
MBC value [1, 6]: 150 ppm
MBC value ([1]; 10% FBS, 1 min): 300 ppm
MBC value ([1]; 10% FBS, 5 min): 200 ppm
MBC value ([1]; 15% FBS, 1 min): 300 ppm
MBC value ([1]; 15% FBS, 5 min): 300 ppm
MBC value [1, 7]: 150 ppm
MBC value [1, 8]: 100 ppm

Compound: O=c1nc([O-])n(Cl)c(=O)n1Cl.[Na+] [NaDCC, sodium dichloroisocyanurate]
MBC value [1, 6]: 150 ppm
MBC value ([1]; 10% FBS, 1 min): 200 ppm
MBC value ([1]; 10% FBS, 5 min): 200 ppm
MBC value ([1]; 15% FBS, 1 min): 300 ppm
MBC value ([1]; 15% FBS, 5 min): 200 ppm
MBC value [1, 7]: 150 ppm
MBC value [1, 8]: 150 ppm
MIC value [2, 6]: 100 ppm
MIC value ([2]; 10% FBS, 1 min): 200 ppm
MIC value ([2]; 10% FBS, 5 min): 200 ppm
MIC value ([2]; 15% FBS, 1 min): 300 ppm
MIC value ([2]; 15% FBS, 5 min): 200 ppm
MIC value [2, 9]: 150 ppm
MIC value [2, 8]: 100 ppm
available chlorine over time (in words) ([4]; NaDCC series, 6-week time period): low available chlorine levels
available chlorine ([4]; NaDCC series, Day 0): 1120
available chlorine ([4]; NaDCC series, W 1): 967
available chlorine ([4]; NaDCC series, W 3): 753
available chlorine ([4]; NaDCC series, W 6): 530
available chlorine ([4]; NaDCC series, W 10): 330

MIC [2, 6]: 200 µg/mL
MIC ([2]; 1 min, 10% FBS): 400 µg/mL
MIC ([2]; 1 min, 15% FBS): 500 µg/mL
MIC ([2]; 5 min, 10% FBS): 100 µg/mL
MIC ([2]; 5 min, 15% FBS): 100 µg/mL
MIC [2, 9]: 100 µg/mL
MIC [2, 8]: 100 µg/mL
chlorine levels and pH over time (in words) ([4]; NaOCl series): no chlorine loss and no change in pH
Compound: OCl [NaOCl, sodium hypochlorite]
MBC value [1, 8]: 250 ppm
MBC [1, 6]: 200 µg/mL
MBC ([1]; 1 min, 10% FBS): 400 µg/mL
MBC ([1]; 1 min, 15% FBS): 500 µg/mL
MBC ([1]; 5 min, 10% FBS): 200 µg/mL
MBC ([1]; 5 min, 15% FBS): 400 µg/mL
MBC [1, 7]: 200 µg/mL
